From ChEMBL document CHEMBL4325872, “Identification of Selective Dual ROCK1 and ROCK2 Inhibitors Using Structure-Based Drug Design” (J Med Chem, 2018)
Converted amounts (≈) assume the structure as drawn.

Columns and labels:
in vitro = conditions: PAMPA

Compound | Papp (in vitro) | solubility (physchem)
COc1cccc([C@@H](C)NC(=O)c2ccc(-c3ccncn3)cc2N2CCC[C@@H](CN)C2)c1 | 2.5 ×10⁻⁶ cm/s | 51.2 µM (≈ 22.8 µg/mL)
COc1cccc([C@@H](C)NC(=O)c2ccc(-c3ccncn3)cc2N2CC[C@@H](CN)C2)c1 | 1.4 ×10⁻⁶ cm/s | 63.9 µM (≈ 27.6 µg/mL)
COc1cccc([C@@H](C)NC(=O)c2ccc(-c3ccncn3)cc2N2CCC[C@H](CN)C2)c1 | 2.6 ×10⁻⁶ cm/s | 65.5 µM (≈ 29.2 µg/mL)
